Test results as given in article PMC6193465 (Journal of the American Chemical Society, 2018).
Where two headings read alike, the source gives them in different places. Where no end group is shown, it is not given here.

Experiments:
[1] = comparison value for 1; cited from earlier work
[2] = tested on: prokaryotic protein synthesis; experiment: in vitro transcription-translation assay; type: biochemical; conditions: read-out: half-maximum inhibitory concentration, inhibition of prokaryotic protein synthesis
[3] = tested on: indicator bacterial strains; experiment: antibacterial activity, minimum inhibitory concentrations; type: cell-based; conditions: range over the strains tested (Table S5)
aqueous solubility = type: physicochemical

Q: Which aqueous solubility [1] does the source give for “IASASCTTCICTCSCSS (also: bicyclic or more (positions not given here)) [compound 1, thiostrepton A, reference compound]” here?
A: Its aqueous solubility is 21.88 ± 0.05 µM.

Q: And the IC50 [2]?
A: Its IC50 is 500 ± 40 nM.

Q: What does the source list for thiostrepton Aa [compound 7]?
A: minimum inhibitory concentrations [3]: 0.018 to 0.098 µg/mL; minimum inhibitory concentrations ([3]; in molar units): 0.010 to 0.058 µM; IC50 [2]: 260 ± 40 nM; aqueous solubility (aqueous solubility): 26.01 ± 0.05 µM
